In patent US20110319384A1, “Pharmaceutical Compositions” (priority 2005, published 2011):

Assays:
patients with GAD [1] = settings: cited from earlier work
[2] = test system: patients with treatment resistant major depression; experiment: Example 24: augmentation of antidepressant therapy, quetiapine versus lithium, 56 days
Protocol: The study compared tolerability and efficacy. […] Lithium was initiated at 600 mg/day, and maintained over Week 1 and 2 and subsequently adjusted to attain a level of 0.8-1.2 mmol/L. Lithium levels were taken weekly.
A total of 20 patients were randomized to 1 of the 2 treatment groups. The study population included men and women aged 18-65 years, with a diagnosis of major depression according to DSM-IV, Hamilton Depression Rating Scale (HAM-D)≧20 and a Clinical Global […] (CGI) score ≧4.
Patients were evaluated at baseline and then on days 7, 14, 28, 42, and 56 using the HAM-D, Montgomery-Asberg […] (MADRS), SAS, and Widlocher Psychomotor Retardation Scale.

[3] = test system: patients resistant to anti-depressant treatment; settings: within 4 weeks; adjunct to anti-depressant therapy; cited from earlier work
patients with GAD [4] = settings: cited from earlier work; remark: listed apart in the source
[5] = add-on to antidepressant, mean doses quetiapine 430 mg/day, lithium 825 mg/day

Description for patients with PTSD: To be included, patients had to be diagnosed with PTSD according to DSM-IV criteria. Patients with comorbid psychotic disorders or substance abuse problems were excluded. […] The dose was split between morning and night time so that the majority of the dose was taken at bedtime.
The primary efficacy endpoints were: (1) change from baseline to endpoint in the Clinician Administered PTSD Scale (CAPS) total score; and (2) the percentage of patients meeting PTSD diagnostic criteria at endpoint. […] Adverse events (AEs) and patient adherence were also evaluated. Forty-seven patients were included in each treatment group.

Compound: COc1ccc(C(CN(C)C)C2(O)CCCCC2)cc1 (stereo not shown) [Venlafaxine XR, venlafaxine]
- change in HAM-A total score compared to placebo (patients with GAD [1]; at 6 months, another long-term study): 5.4
- difference in HAM-A total score (patients with GAD [1]; long-term study, s.d.=7.5): 4.18 points

Compound: [Li] [lithium]
- Widlocher Psychomotor Retardation Scale mean baseline score ([2]; add-on to antidepressant): about 22
- Widlocher Psychomotor Retardation Scale mean score after treatment ([2]; add-on to antidepressant): about 15
- mean MADRS score after Day 7 up to Day 56 (end value) ([2]; add-on to antidepressant): about 22
- mean HAM-D score at Day 56 [2, 5]: about 15
- mean HAM-D score, start value of 'From Day 7 to 56' [2, 5]: about 28
- patients in remission (HAM-D) ([2]; after 56 days): 40%
- patients who responded (MADRS) ([2]; after 56 days): 50%
- patients who responded to treatment (HAM-D) ([2]; after 56 days): 50%
- patients who achieved remission (MADRS) ([2]; at 56 days): 30%
- patients who respond [3]: ~50%

Compound: Fc1ccc([C@@H]2CCNC[C@H]2COc2ccc3c(c2)OCO3)cc1 [paroxetine]
- percent remission (patients with GAD [4]; placebo 30%): 70%
- relapse (patients with GAD [4]; relapse = increase in CGI-S score of at least 2 points to >=4, or withdrawal from lack of efficacy, placebo 39.9%): 10.9%

Compound: CN[C@H]1CC[C@@H](c2ccc(Cl)c(Cl)c2)c2ccccc21 [sertraline+placebo, sertraline]
- mean improvement (decrease) from baseline to endpoint in CAPS total score (patients with PTSD; 8 weeks): about 53
- patients still meeting PTSD diagnostic criteria (patients with PTSD; after 8 weeks of treatment, disparity not seen with LOCF analysis): 37%
- CGI-I scores (patients with PTSD; in vivo): significant increase
- mean HAM-D scores and CGI-S scores, baseline to endpoint (patients with PTSD; in vivo): decreased significantly
- patients that experienced at least one AE (patients with PTSD; of 59 in the study): 31 patients
